Experiments:
barnyardgrass [1] = experiment: Test B flooded paddy test; format: in vivo, Echinochloa crus-galli; details: Flood, 250 g ai/ha, 13 to 15 days; scale 0 to 100, 0 no effect, 100 complete control
From the text: (§1) At time of treatment, test pots were flooded to 3 cm above the soil surface, treated by application of test compounds directly to the paddy water, and then maintained at that water depth for the duration of the test. Treated plants and controls were maintained in a greenhouse for 13 to 15 days, after which time all species were compared to controls and visually evaluated. […] A dash (-) response means no test result.

duck salad = experiment: Test B flooded paddy test; format: in vivo, Heteranthera limosa; details: Flood, 250 g ai/ha, 13 to 15 days; scale 0 to 100, 0 no effect, 100 complete control
From the text: as §1

umbrella sedge = experiment: Test B flooded paddy test; format: in vivo, Cyperus difformis; details: Flood, 250 g ai/ha, 13 to 15 days; scale 0 to 100, 0 no effect, 100 complete control
From the text: as §1

downy bromegrass = experiment: Test D preemergence test; format: in vivo, Bromus tectorum; details: scale 0 to 100
Summary of the method: (§2)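 Seeds planted and treated preemergence with test chemicals formulated in a non-phytotoxic solvent mixture containing surfactant. A dash means no test result.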

field violet = experiment: Test D preemergence test; format: in vivo, Viola arvensis; details: scale 0 to 100
Summary of the method: as §2

green foxtail = experiment: Test D preemergence test; format: in vivo, Setaria viridis; details: scale 0 to 100
Summary of the method: as §2

Italian ryegrass = experiment: Test D preemergence test; format: in vivo, Lolium multiflorum; details: scale 0 to 100
Summary of the method: as §2

spring wheat = experiment: Test D preemergence test; format: in vivo, Triticum aestivum; details: scale 0 to 100
Summary of the method: as §2

winter wheat = experiment: Test D preemergence test; format: in vivo, Triticum aestivum; details: scale 0 to 100
Summary of the method: as §2

wild oat = experiment: Test D preemergence test; format: in vivo, Avena fatua; details: scale 0 to 100
Summary of the method: as §2

windgrass = experiment: Test D preemergence test; format: in vivo, Apera spica-venti; details: scale 0 to 100
Summary of the method: as §2

barnyardgrass [2] = experiment: Test G preemergence test; format: in vivo, Echinochloa crus-galli; details: scale 0 to 100
broadleaf signalgrass = experiment: Test G preemergence test; format: in vivo, Brachiaria platyphylla; details: scale 0 to 100
corn = experiment: Test G preemergence test; format: in vivo, Zea mays; details: scale 0 to 100
eastern black nightshade = experiment: Test G preemergence test; format: in vivo, Solanum ptycanthum; details: scale 0 to 100
fall panicum = experiment: Test G preemergence test; format: in vivo, Panicum dichotomiflorum; details: scale 0 to 100
giant foxtail = experiment: Test G preemergence test; format: in vivo, Setaria faberii; details: scale 0 to 100
goosegrass = experiment: Test G preemergence test; format: in vivo, Eleusine indica; details: scale 0 to 100
lambsquarters = experiment: Test G preemergence test; format: in vivo, Chenopodium album; details: scale 0 to 100
large crabgrass = experiment: Test G preemergence test; format: in vivo, Digitaria sanguinalis; details: scale 0 to 100
sorghum = experiment: Test G preemergence test; format: in vivo, Sorghum vulgare; details: scale 0 to 100
soybean = experiment: Test G preemergence test; format: in vivo, Glycine max; details: scale 0 to 100
tall waterhemp = experiment: Test G preemergence test; format: in vivo, Amaranthus tuberculatos; details: scale 0 to 100
yellow foxtail = experiment: Test G preemergence test; format: in vivo, Pennisetum glaucum; details: scale 0 to 100
woolly cupgrass = experiment: Test G preemergence test; format: in vivo, Eriochloa villosa; details: scale 0 to 100

Cn1nc(C(F)(F)F)c(CS(=O)(=O)c2cccc[n+]2[O-])c1OC(F)F [Compound 4]
Plant response rating, Barnyardgrass (barnyardgrass [1]): 80
Plant response rating, Ducksalad (duck salad): 90
Plant response rating, Umbrella Sedge (umbrella sedge): 100
Plant response rating, Bromegrass, Downy (downy bromegrass; 31 g ai/ha): 30
Plant response rating, Bromegrass, Downy (downy bromegrass; 62 g ai/ha): 30
Plant response rating, Bromegrass, Downy (downy bromegrass; 125 g ai/ha): 30
Plant response rating, Bromegrass, Downy (downy bromegrass; 250 g ai/ha): 30
Plant response rating, Field Violet (field violet; 31 g ai/ha): 0
Plant response rating, Field Violet (field violet; 62 g ai/ha): 0
Plant response rating, Field Violet (field violet; 125 g ai/ha): 0
Plant response rating, Field Violet (field violet; 250 g ai/ha): 10
Plant response rating, Foxtail, Green (green foxtail; 31 g ai/ha): 40
Plant response rating, Foxtail, Green (green foxtail; 62 g ai/ha): 50
Plant response rating, Foxtail, Green (green foxtail; 125 g ai/ha): 50
Plant response rating, Foxtail, Green (green foxtail; 250 g ai/ha): 100
Plant response rating, Ryegrass, Italian (Italian ryegrass; 31 g ai/ha): 20
Plant response rating, Ryegrass, Italian (Italian ryegrass; 62 g ai/ha): 20
Plant response rating, Ryegrass, Italian (Italian ryegrass; 125 g ai/ha): 20
Plant response rating, Ryegrass, Italian (Italian ryegrass; 250 g ai/ha): 50
Plant response rating, Wheat, Spring (spring wheat; 31 g ai/ha): 20
Plant response rating, Wheat, Spring (spring wheat; 62 g ai/ha): 30
Plant response rating, Wheat, Spring (spring wheat; 125 g ai/ha): 30
Plant response rating, Wheat, Spring (spring wheat; 250 g ai/ha): 30
Plant response rating, Wheat, Winter (winter wheat; 31 g ai/ha): 30
Plant response rating, Wheat, Winter (winter wheat; 62 g ai/ha): 20
Plant response rating, Wheat, Winter (winter wheat; 125 g ai/ha): 25
Plant response rating, Wheat, Winter (winter wheat; 250 g ai/ha): 45
Plant response rating, Oat, Wild (wild oat; 31 g ai/ha): 25
Plant response rating, Oat, Wild (wild oat; 62 g ai/ha): 30
Plant response rating, Oat, Wild (wild oat; 125 g ai/ha): 30
Plant response rating, Oat, Wild (wild oat; 250 g ai/ha): 35
Plant response rating, Windgrass (windgrass; 31 g ai/ha): 90
Plant response rating, Windgrass (windgrass; 62 g ai/ha): 100
Plant response rating, Windgrass (windgrass; 125 g ai/ha): 100
Plant response rating, Windgrass (windgrass; 250 g ai/ha): 100
Plant response rating, Barnyardgrass (barnyardgrass [2]; 31 g ai/ha): 70
Plant response rating, Barnyardgrass (barnyardgrass [2]; 62 g ai/ha): 100
Plant response rating, Barnyardgrass (barnyardgrass [2]; 125 g ai/ha): 100
Plant response rating, Barnyardgrass (barnyardgrass [2]; 250 g ai/ha): 100
Plant response rating, Signalgrass (broadleaf signalgrass; 31 g ai/ha): 0
Plant response rating, Signalgrass (broadleaf signalgrass; 62 g ai/ha): 20
Plant response rating, Signalgrass (broadleaf signalgrass; 125 g ai/ha): 80
Plant response rating, Signalgrass (broadleaf signalgrass; 250 g ai/ha): 90
Plant response rating, Corn (corn; 31 g ai/ha): 0
Plant response rating, Corn (corn; 62 g ai/ha): 0
Plant response rating, Corn (corn; 125 g ai/ha): 5
Plant response rating, Corn (corn; 250 g ai/ha): 0
Plant response rating, Nightshade (eastern black nightshade; 31 g ai/ha): 20
Plant response rating, Nightshade (eastern black nightshade; 62 g ai/ha): 30
Plant response rating, Nightshade (eastern black nightshade; 125 g ai/ha): 90
Plant response rating, Nightshade (eastern black nightshade; 250 g ai/ha): 100
Plant response rating, Fall Panicum (fall panicum; 31 g ai/ha): 20
Plant response rating, Fall Panicum (fall panicum; 62 g ai/ha): 20
Plant response rating, Fall Panicum (fall panicum; 125 g ai/ha): 60
Plant response rating, Fall Panicum (fall panicum; 250 g ai/ha): 100
Plant response rating, Foxtail, Giant (giant foxtail; 31 g ai/ha): 40
Plant response rating, Foxtail, Giant (giant foxtail; 62 g ai/ha): 50
Plant response rating, Foxtail, Giant (giant foxtail; 125 g ai/ha): 90
Plant response rating, Foxtail, Giant (giant foxtail; 250 g ai/ha): 100
Plant response rating, Goosegrass (goosegrass; 31 g ai/ha): 80
Plant response rating, Goosegrass (goosegrass; 62 g ai/ha): 95
Plant response rating, Goosegrass (goosegrass; 125 g ai/ha): 100
Plant response rating, Goosegrass (goosegrass; 250 g ai/ha): 100
Plant response rating, Lambsquarters (lambsquarters; 31 g ai/ha): 0
Plant response rating, Lambsquarters (lambsquarters; 62 g ai/ha): 10
Plant response rating, Lambsquarters (lambsquarters; 125 g ai/ha): 10
Plant response rating, Lambsquarters (lambsquarters; 250 g ai/ha): 10
Plant response rating, Crabgrass, Large (large crabgrass; 31 g ai/ha): 85
Plant response rating, Crabgrass, Large (large crabgrass; 62 g ai/ha): 80
Plant response rating, Crabgrass, Large (large crabgrass; 125 g ai/ha): 95
Plant response rating, Crabgrass, Large (large crabgrass; 250 g ai/ha): 100
Plant response rating, Sorghum (sorghum; 31 g ai/ha): 10
Plant response rating, Sorghum (sorghum; 62 g ai/ha): 25
Plant response rating, Sorghum (sorghum; 125 g ai/ha): 35
Plant response rating, Sorghum (sorghum; 250 g ai/ha): 40
Plant response rating, Soybean (soybean; 31 g ai/ha): 0
Plant response rating, Soybean (soybean; 62 g ai/ha): 10
Plant response rating, Soybean (soybean; 125 g ai/ha): 15
Plant response rating, Soybean (soybean; 250 g ai/ha): 15
Plant response rating, Waterhemp (tall waterhemp; 31 g ai/ha): 80
Plant response rating, Waterhemp (tall waterhemp; 62 g ai/ha): 100
Plant response rating, Waterhemp (tall waterhemp; 125 g ai/ha): 100
Plant response rating, Waterhemp (tall waterhemp; 250 g ai/ha): 100
Plant response rating, Foxtail, Yellow (yellow foxtail; 31 g ai/ha): 100
Plant response rating, Foxtail, Yellow (yellow foxtail; 62 g ai/ha): 100
Plant response rating, Foxtail, Yellow (yellow foxtail; 125 g ai/ha): 100
Plant response rating, Foxtail, Yellow (yellow foxtail; 250 g ai/ha): 100
Plant response rating, Cupgrass, Woolly (woolly cupgrass; 31 g ai/ha): 0
Plant response rating, Cupgrass, Woolly (woolly cupgrass; 62 g ai/ha): 75
Plant response rating, Cupgrass, Woolly (woolly cupgrass; 125 g ai/ha): 75
Plant response rating, Cupgrass, Woolly (woolly cupgrass; 250 g ai/ha): 100
